These are literature values, as cited in patent US9622997B2, “Methods for treating insomnia” (Lynn Health Science Institute, Inc., priority 2012, dated 2017).

Like-named read-outs stand apart in the source and are kept apart here.

Series [1] concerns 3 hour phase-advance study population. Particulars: 6 mg, cited from earlier work.
Series [2] has as its system 2 hour phase-advance study population. The settings on record: cited from earlier work; for TST: ↑ increase compared to placebo; for WASG: ↓ decrease compared to placebo.
For series [3], the system named is First-night effect (no PA) study population. Particulars: cited from earlier work; for TST: ↑ increase compared to placebo; for WASG: ↓ decrease compared to placebo, NS.
Series [4] relates to 2 hour phase-advance study population. The settings on record: ↓ decrease compared to placebo, cited from earlier work.
For series [5], the system named is 3 hour phase-advance study population. Also on record: TST: unit not given here. The settings on record: cited from earlier work; for TST: ↑ increase compared to placebo; for WASG: ↓ decrease compared to placebo.
For series [6] the following is noted: recent study; cited from earlier work.
The subject of series [7] is 4 hour phase-advance study population. Particulars: 10 mg, cited from earlier work.
For series [8] the test system is unchanged. The settings on record: 10 mg, cited from earlier work. This is another data set of the same source.

For the compound `CN(C)CCC=C1c2ccccc2COc2ccccc21` [Doxepin], the TST result in series [1] (↑ increase compared to placebo) is “↑ 51.1”. Besides, in series [1] (↓ decrease compared to placebo), the SOL entry was “↓ 15.9” and the WASG entry is listed as “↓ 40.0 min”.
For `CC(=O)N(C)c1cccc(-c2ccnc3c(C(=O)c4cccs4)cnn23)c1` [Indiplon], the figures for the TST entry in series [2] (10 mg) and in series [2] (20 mg) were “↑ 11.6” and “↑ 20.6”, respectively. Further, the WASG entry in series [2] (20 mg) is on record as “↓ 7.4 min”; in series [2] (NS, 10 mg), “↓ 1.2^NS min”.
With `CCC(=O)NCC[C@@H]1CCc2ccc3c(c21)CCO3` [Ramelteon], in series [3] (8 mg), the TST entry is “↑ 17.1” and the WASG entry is “↓ 5.0^NS min”. Besides, in series [3] (16 mg), the TST entry is given as “↑ 13.4” and the WASG entry is on record as “↓ 2.5^NS min”.
For `CN1C(=O)C(O)N=C(c2ccccc2)c2cc(Cl)ccc21` (stereo not drawn) [Temazepam], the WASG entry in series [4] (NS, temazepam 15 mg) is recorded as “↓ 7.0^NS min”.
Regarding `Cc1ccc(-c2nc3ccc(C)cn3c2CC(=O)N(C)C)cc1` [Zolpidem], the TST entry is recorded as “↑ 35.7” in series [5] (10 mg); “↑ 37.3” in series [5] (15 mg); “↑ 35.6^NS” in series [5] (NS, 5 mg); “↑ 12.8^NS” in series [5] (NS, 20 mg); “↑ 47.8” in series [7] (↑ increase compared to placebo); “↑ 52.8” in series [8] (↑ increase compared to placebo). The WASG entry in series [5] (20 mg) is “↓ 32.3 min”; in series [5] (NS, 5 mg), “↓ 22.5^NS min”; in series [5] (NS, 10 mg), “↓ 31.2^NS min”; in series [5] (NS, 15 mg) it was “↓ 26.9^NS min”; in series [4] (zolpidem 10 mg, listed as zolpidem), 9.4 min; in series [4] (zolpidem 10 mg), “↓ 9.4 min”. The figures for the WASG entry in series [7] (↓ decrease compared to placebo) and in series [8] (↓ decrease compared to placebo) were “↓ 24.7 min” and “↓ 35.1 min”, respectively. Besides, the “effect on sleep related GER (acid contact time)” value in series [6] is listed as “markedly prolonging acid contact time”.
